Converted amounts (≈) assume the structure as drawn. Read-outs that look alike come from different tables or passages of the source.
Experiments:
[1] = Hygroscopicity (water absorption versus relative humidity); format: physicochemical
physchem = conditions: water
acetylcholine = test: Microdialysis: extracellular acetylcholine in the brain of freely moving rats; format: in vivo, Sprague-Dawley rats; conditions: rat, subcutaneously 2.5-10 mg/kg
Description: The animals were administered 1-[2-(2,4-dimethylphenylsulfanyl)phenyl]-piparazine, HBr salt.
Male Sprague-Dawley rats, initially weighing 275-300 g, were used. The animals were housed under a 12-hr light/dark cycle under controlled conditions for regular in-door temperature (21±2° C.) and humidity (55±5%) with food and tap water available ad libitum.
Rats were anaesthetised with hypnorm/dormicum (2 ml/kg) and intracerebral guide cannulas (CMA/12) were stereotaxically implanted into the brain, aiming at positioning the dialysis probe tip in the ventral hippocampus (co-ordinates: 5.6 mm posterior to bregma, lateral −5.0 mm, 7.0 mm ventral to dura) or in the prefrontal cortex (co-ordinates: 3.2 mm anterior to bregma; lateral, 0.8 mm; 4.0 mm ventral to dura). […] The body temperature of the animals was monitored by rectal probe and maintained at 37° C. […]
The compound dissolved in 10% HPbetaCD and injected subcutaneously (2.5-10 mg/kg). Doses are expressed as mg salt/kg body weight. […]
Concentration of acetylcholine (ACh) in the dialysates was analysed by means of HPLC with electrochemical detection using a mobile phase consisting of 100 mM disodium hydrogenphosphate, 2.0 mM octane sulfonic acid, 0.5 mM tetramethyl-ammonium chloride and 0.005% MB (ESA), pH 8.0. […] The latter was detected electrochemical by using a platinum electrode (Analytical cell: ESA, model 5040). […]

Sprague-Dawley rats = test: Contextual fear conditioning in rats; format: in vivo; conditions: for time spent freezing during the retention test: 24 h after acquisition
Excerpt: The compound administered in the present experiment was 1-[2-(2,4-dimethylphenylsulfanyl)phenyl]piperazine HBr salt.
We have studied the effect of the compound on acquisition, consolidation and recall of contextual fear conditioning in rats. In the fear conditioning paradigm animals learn to associate a neutral environment (context, the training chamber, CS) with an aversive experience (an electrical foot-shock, US). During re-exposure to the training chamber, animals express a freezing behaviour, which is taken as a direct measure of the fear-related memory [Pavlov J. Biol. Sci., 15, 177-182, 1980]. […] Neurosci., 106, 274-285, 1992].
Adult male Sprague-Dawley rats (weighing 250-300 g at time of training) from Charles River Laboratories, housed two per cage under a 12 h light/dark cycle, were used. Food and water were available ad libitum. Rats were used 1 week after arrival. The compound was dissolved in 10% HPbetaCD and injected subcutaneously. The drug was administered in a volume of 2.5 ml/kg.
Training and testing were conducted in a soundproof chamber (30×20×40 cm) housed in an isolated room and connected to a ventilation system. Illumination was provided by a white light (60 Watt). The floor of the chamber consisted of a metal grid attached to an electric shock generator. Prior to training and testing, the chamber was cleaned with a 70% ethanol solution. A video camera allowed for behavioral observations and recording of the training session for off-line analysis.
During the acquisition animals were allowed to freely explore the novel environment for a 1 min habituation period, which co-terminated with one inescapable foot-shock (unconditioned stimulus, US) through the electrifiable grid floor. […] Animals remained in the conditioning chamber for another 60 s after the US. Freezing behaviour was scored during the first 58 s (pre-shock acquisition; experimenter blinded to groups) to determine baseline-freezing responses to the context. At the end of the acquisition animals were gently removed and placed into their home cages. After 24 h the same animals were reintroduced into the training context (fear conditioning chamber) and a 2 min retention test was performed. During this period no foot shocks were applied. Freezing behaviour was scored during the whole test period with the experimenter blinded to groups and presented as percent of total test period.

[2] = biological target: Rat serotonin transporter (Rattus norvegicus, UniProt P31652); test: Rat serotonin transporter, blockade of 5-HT uptake; format: biochemical
Human 5-HT3A receptor = biological target: T1, Human 5-HT3A receptor (Homo sapiens, UniProt P46098); test: Human 5-HT3A receptor functional assay (cloned into oocytes); format: cell-based; conditions: at higher concentration, read-out: ED50 (agonistic activity)
T1 sequence (P46098 24-478): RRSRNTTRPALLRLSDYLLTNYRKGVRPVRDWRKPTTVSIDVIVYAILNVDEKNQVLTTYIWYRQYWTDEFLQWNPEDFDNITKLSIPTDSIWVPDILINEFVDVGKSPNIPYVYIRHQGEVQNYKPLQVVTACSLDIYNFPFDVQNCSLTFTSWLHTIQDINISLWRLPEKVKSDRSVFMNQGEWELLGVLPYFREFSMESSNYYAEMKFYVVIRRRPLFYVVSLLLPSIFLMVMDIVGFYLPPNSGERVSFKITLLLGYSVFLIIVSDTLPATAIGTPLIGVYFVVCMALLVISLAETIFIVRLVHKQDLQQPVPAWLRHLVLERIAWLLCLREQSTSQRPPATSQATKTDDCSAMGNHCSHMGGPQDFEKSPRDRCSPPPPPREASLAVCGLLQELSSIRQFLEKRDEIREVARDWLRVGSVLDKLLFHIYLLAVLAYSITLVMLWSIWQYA
Excerpt: As shown in example 1, the compounds of the present invention are potent inhibitors of the human serotonin transporter, i.e. they inhibit serotonin reuptake. Moreover, the compounds are potent antagonists at the mouse, rat, guinea pig and canine 5-HT3 receptor. […] Thus, at low concentrations compounds of the present invention display a marked antagonism at the human 5-HT3 receptor as observed on the 5-HT3 receptor from other species.

Chain of Rat serotonin transporter (P31652 whole entry): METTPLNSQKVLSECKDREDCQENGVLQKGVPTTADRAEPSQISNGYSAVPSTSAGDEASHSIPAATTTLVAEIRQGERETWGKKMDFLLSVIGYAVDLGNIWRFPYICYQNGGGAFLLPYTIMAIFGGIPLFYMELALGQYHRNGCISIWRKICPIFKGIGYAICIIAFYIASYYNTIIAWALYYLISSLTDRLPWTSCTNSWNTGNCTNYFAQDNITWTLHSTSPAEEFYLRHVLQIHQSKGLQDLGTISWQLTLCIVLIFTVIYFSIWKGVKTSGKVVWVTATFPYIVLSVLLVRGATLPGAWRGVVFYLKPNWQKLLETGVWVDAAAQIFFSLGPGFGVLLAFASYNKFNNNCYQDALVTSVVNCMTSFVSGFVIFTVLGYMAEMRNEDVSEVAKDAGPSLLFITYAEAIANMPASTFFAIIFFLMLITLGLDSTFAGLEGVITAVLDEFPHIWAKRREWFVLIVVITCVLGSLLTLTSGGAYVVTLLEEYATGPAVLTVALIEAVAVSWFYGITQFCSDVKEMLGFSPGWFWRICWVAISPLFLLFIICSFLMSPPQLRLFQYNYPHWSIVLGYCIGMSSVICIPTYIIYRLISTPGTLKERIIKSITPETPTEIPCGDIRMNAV

Cc1ccc(Sc2ccccc2N2CCNCC2)c(C)c1.Cl [hydrochloride monohydrate, 1-[2-(2,4-Dimethylphenylsulfanyl)-phenyl]piperazine HCl]
hygroscopicity [1]: does not absorb further amount of water | solubility (physchem): ~2000 µg/mL

Br.Cc1ccc(Sc2ccccc2N2CCNCC2)c(C)c1 [1-[2-(2,4-dimethylphenylsulfanyl)phenyl]piperazine HBr salt]
extra-cellular levels of ACh in prefrontal cortex (acetylcholine; FIG. 19a): significantly increased | extra-cellular levels of ACh in ventral hippocampus (acetylcholine; FIG. 19b): significantly increased | time spent freezing during the retention test (Sprague-Dawley rats; 5 mg/kg s.c. 1 h prior to acquisition): 39.24±13.76% | freezing behaviour during the memory test (Sprague-Dawley rats; 5 mg/kg s.c. 1 h prior to the retention test, p<0.05): 12.86±3.57% | time spent freezing during the retention test (Sprague-Dawley rats; 5 mg/kg s.c. after the acquisition session, p<0.05): 45.58±4.50% | time spent freezing during the retention test (Sprague-Dawley rats; 10 mg/kg s.c. 1 h prior to acquisition, p<0.01): 52.15±5.68% | contextual memory (Sprague-Dawley rats; rats): enhances contextual memory | baseline freezing behaviour before the foot shock (Sprague-Dawley rats; rats, 1, 5 and 10 mg/kg s.c. 1 h prior to acquisition): does not affect

Cc1ccc(Sc2ccccc2N2CCNCC2)c(C)c1.O=[N+]([O-])O [nitrate, 1-[2-(2,4-Dimethylphenylsulfanyl)-phenyl]piperazine nitrate]
solubility (physchem): ~800 µg/mL

Br.Cc1ccc(Sc2ccccc2N2CCNCC2)c(C)c1 [gamma form of the hydrobromide, 1-[2-(2,4-Dimethylphenylsulfanyl)-phenyl]piperazine hydrobromide]
water absorbed at 30% RH ([1]; 30% RH at room temperature): about 2%

Cc1ccc(Sc2ccccc2N2CCNCC2)c(C)c1.O=P(O)(O)O [phosphate, 1-[2-(2,4-Dimethylphenylsulfanyl)-phenyl]piperazine phosphate]
solubility (physchem): ~1000 µg/mL

Cc1ccc(Sc2ccccc2N2CCNCC2)c(C)c1.O=C(O)C(O)C(O)C(=O)O [L-(+)-tartrate, 1-[2-(2,4-Dimethylphenylsulfanyl)-phenyl]piperazine (+)-tartaric acid]
solubility (physchem): ~400 µg/mL

CS(=O)(=O)O.Cc1ccc(Sc2ccccc2N2CCNCC2)c(C)c1 [mesylate, 1-[2-(2,4-Dimethylphenylsulfanyl)-phenyl]piperazine mesylate]
hygroscopicity [1]: hygroscopic | solubility (physchem): > 45000 µg/mL

Br.CCOC(C)=O.Cc1ccc(Sc2ccccc2N2CCNCC2)c(C)c1 [ethyl acetate solvate, 1-[2-(2,4-Dimethylphenylsulfanyl)-phenyl]piperazine HBr EtOAc solvate]
hygroscopicity [1]: hygroscopic

Cc1ccc(Sc2ccccc2N2CCNCC2)c(C)c1.O=C(O)/C=C\C(=O)O [maleate, 1-[2-(2,4-Dimethylphenylsulfanyl)-phenyl]piperazine Maleate]
solubility (physchem): ~1000 µg/mL

Cc1ccc(Sc2ccccc2N2CCNCC2)c(C)c1.O=S(=O)(O)O [sulphate, 1-[2-(2,4-Dimethylphenylsulfanyl)-phenyl]piperazine sulphate]
solubility (physchem): ~100 µg/mL

Cc1ccc(Sc2ccccc2N2CCNCC2)c(C)c1 [compound I, 1-[2-(2,4-dimethylphenylsulfanyl)-phenyl]piperazine]
IC50 [2]: 5.3 nM | EC50 (Human 5-HT3A receptor): 2100 nM

Br.Cc1ccc(Sc2ccccc2N2CCNCC2)c(C)c1 [beta form of the hydrobromide, 1-[2-(2,4-Dimethylphenylsulfanyl)-phenyl]piperazine hydrobromide]
solubility in water (Solubility in water; hydrobromide): 1200 µg/mL

Cc1ccc(Sc2ccccc2N2CCNCC2)c(C)c1 [crystalline base, 1-[2-(2,4-Dimethylphenylsulfanyl)-phenyl]piperazine]
hygroscopicity [1]: not hygroscopic | solubility in water (Solubility in water): 100 µg/mL (≈ 335 µM)

Cc1ccc(Sc2ccccc2N2CCNCC2)c(C)c1.O=C(O)/C=C/C(=O)O [fumarate, 1-[2-(2,4-Dimethyl-phenylsulfanyl)-phenyl]-piperazine fumarate]
solubility (physchem): 400 µg/mL

Br.Cc1ccc(Sc2ccccc2N2CCNCC2)c(C)c1 [hemi hydrate of the hydrobromide]
water content ([1]; room temperature and 95% RH): about 3.7%

Source: patent publication US11458134B2, “1-[2-(2,4-dimeihylphenylsulfanyl)-phenyl]piperazine as a compound with combined serotonin reuptake, 5-HT3 and 5-HT1A activity for the treatment of cognitive impairment” (H. Lundbeck A/S, priority 2006, dated 2022)
